For data set [1] the following is noted: 200 MBq; ref Afshar-Oromieh et al. [2016]; cited from earlier work.
The nature of data set [2]: Stability of ^133La-PSMA radioconjugates in human serum, by radio-TLC. To be noted: for stability in serum: ^133La-radioconjugate, up to / after 24 h; for HS stability 1 h / HS stability 4 h / HS stability 24 h: human serum/PBS pH 7, 37 °C, tested thrice. Type of data set: in vitro ADME. The protocol: Apparent molar activity (AMA) was quantified by titration with the macropa chelator in combination with radio-TLC. 3–10 µL [^133La]LaCl3 (4–7 MBq, approximately 10 MBq at EOB) were added to a buffered solution (ammonium acetate 200 mM, pH 6, total volume 100 µL) containing different chelator concentrations: 0.20 µM, 0.40 µM, 0.80 µM and 1.60 µM. These solutions were mixed at 500 rpm for 15 min at room temperature. The formed [^133La]La-macropa complex was analyzed using silica gel coated aluminum plates and developed with 50 mM EDTA as eluent. While the free lanthanum runs to the front, the complex remains at the start.
To assess the serum stability of both radiolabeled compounds, 75 µL of the ^133La-PSMA radioconjugates, accounting for ca. 50 MBq ^133La, were added to 75 µL of PBS buffer pH 7 and 150 µL of human serum and mixed at 500 rpm for 24 h at 37 °C. Silica gel plates were spotted after 1 h, 4 h and 24 h to evaluate the evolution of the complex stability. Each ^133La-PSMA radioligand and its molar activity was tested thrice.

Assay in data set [3]: as above
It is filed as in vitro ADME. To be noted: after 24 h in human serum, radio-TLC (Fig. 11).

Bounds are passed on as bounds.

Regarding `O=C([O-])CN(CCN(CC(=O)[O-])Cc1cc(CCC(=O)NCCCCCC(=O)NCCCC[C@H](NC(=O)N[C@@H](CCC(=O)O)C(=O)O)C(=O)O)ccc1[O-])Cc1cc(CCC(=O)O)ccc1[O-].[68Ga+3].[OH3+]` [[^68Ga]Ga-PSMA-11], the effective dose in data set [1] was 4.7 mSv.

With `O=C(O)CC[C@H](NC(=O)N[C@@H](CCCCNC(=O)[C@H](Cc1ccc2ccccc2c1)NC(=O)[C@H]1CC[C@H](CNC(=O)CN2CCN(CC(=O)O)CCN(CC(=O)O)CCN(CC(=O)O)CC2)CC1)C(=O)O)C(=O)O` [[^133La]La-PSMA-617], the stability in serum in data set [2] (molar activity not given) was above 98.5 ± 0.3%. Besides, in data set [2] (molar activity 40 GBq/µmol), the “HS stability 1 h” value came to 99.37 ± 0.12%, the “HS stability 4 h” value came out at 99.40 ± 0.01% and the “HS stability 24 h” value was 97.37 ± 0.17%. In data set [2] (molar activity 80 GBq/µmol), the “HS stability 1 h” value was 99.57 ± 0.12%, the “HS stability 4 h” value is listed as 99.60 ± 0.08% and the “HS stability 24 h” value was 98.5 ± 0.3%.

Take `O=C(O)CCC(NC(=O)NC(CCCCNC(=O)C(Cc1ccc2ccccc2c1)NC(=O)C1CCC(CNC(=O)CCCCn2cc(COc3cc(CN4CCOCCOCCN(Cc5cccc(C(=O)O)n5)CCOCCOCC4)nc(C(=O)O)c3)nn2)CC1)C(=O)O)C(=O)O` (centres unmarked) [[^133La]La-mcp-M-PSMA]: in data set [2] (molar activity not stated in the sentence), the stability in serum is above 99%. The stability in serum in data set [2] (molar activity not stated in the sentence, listed as mcp-M-PSMA) is above 99.20 ± 0.08%. In data set [2] (molar activity 40 GBq/µmol), the “HS stability 1 h” value is recorded as 100 ± 0%, the “HS stability 4 h” value worked out at 100 ± 0% and the “HS stability 24 h” value is reported as 99.57 ± 0.25%. In addition, in data set [2] (molar activity 80 GBq/µmol), the “HS stability 1 h” value is given as 99.80 ± 0.01%, the “HS stability 4 h” value was found to be 99.83 ± 0.08% and the “HS stability 24 h” value turned out to be 99.20 ± 0.08%.

Regarding `[133La+3].[Cl-].[Cl-].[Cl-]` [[^133La]LaCl3], in data set [3], the “free [^133Ba]Ba^2+ as share of the total radioactivity” value is 1.1%.

Values taken from paper PMC11327230, “Scalability study on [^133La]LaCl3 production with a focus on potential clinical applications” (EJNMMI Radiopharmacy and Chemistry, 2024).
